Biological target: MASP-2 CCP2-SP (Homo sapiens (Human), UniProt O00187)
Assay: MASP-2 co-crystallization, X-ray crystallography and structure analysis (H-bonds, van der Waals contacts);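 on Ligand-pharmacophore element distance, pharmacophore element C2: distance from averaged pharmacophore element to bound ligand; missing value means element absent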;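 on Ligand-pharmacophore element distance, pharmacophore element C3: distance from averaged pharmacophore element to bound ligand; missing value means element absent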;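 on Ligand-pharmacophore element distance, pharmacophore element C4: distance from averaged pharmacophore element to bound ligand; missing value means element absent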;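 on Ligand-pharmacophore element distance, pharmacophore element C5: distance from averaged pharmacophore element to bound ligand; missing value means element absent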
Parameters: van der Waals contact distance, MASP-2 HIS 483 atom CD2 / van der Waals contact distance, MASP-2 HIS 483 atom NE2 / van der Waals contact distance, SER 654 C to compound atom / van der Waals contact distance, SER 654 O to compound atom / van der Waals contact distance, TRP 655 C to compound atom / van der Waals contact distance, MASP-2 GLY 528 atom CA / van der Waals contact distance TRP 655 atom CZ3 / van der Waals contact distance TRP 655 atom N / van der Waals contact distance TRP 655 atom CE3 / van der Waals contact distance GLY 656 atom C / van der Waals contact distance GLY 656 atom CA / van der Waals contact distance GLY 656 atom O / van der Waals contact distance, MASP-2 TYR 607 atom CD1 / van der Waals contact distance, MASP-2 PRO 606 atom O / d(C3,CA1) / d(CA1,N1)2 / d(H4,O1) / d(H4,O2) / d(O1,O2) / d(CA1,O2) / d(CA6,O1) / d(CA6,O2) / d(CA1,C5) / d(O2,H3) / d(N2,C2) / d(CA5,N2) / d(N2,C4) / d(N2,C6) / d(N2,CA3) / d(N2,O3) / d(O4,H2): unit not given beside the values
Conditions: for Ligand-pharmacophore element distance, pharmacophore element C2 / Ligand-pharmacophore element distance, pharmacophore element C3 / Ligand-pharmacophore element distance, pharmacophore element C4 / Ligand-pharmacophore element distance, pharmacophore element C5 / Ligand-pharmacophore element distance, pharmacophore element C6 / Ligand-pharmacophore element distance, pharmacophore element C7 / Ligand-pharmacophore element distance, pharmacophore element CA1 / Ligand-pharmacophore element distance, pharmacophore element CA2 / Ligand-pharmacophore element distance, pharmacophore element CA3 / Ligand-pharmacophore element distance, pharmacophore element CA4 / Ligand-pharmacophore element distance, pharmacophore element CA5 / Ligand-pharmacophore element distance, pharmacophore element CA6: Table A4-1; for A(N1, CA1, O1) a): all compounds with protonatable center N1 except Methyl-amino-pyridine
From the text: This example illustrates the preparation of recombinant MASP-2 protein, based on UniProt O00187, human mannan-binding lectin serine protease 2. Expression constructs for human MASP-2 CCP2-SP and CCP2-SP-6HIS were generated for recombinant expression in E. coli cells.
Typically, crystallization hits were obtained by screening against […] 96-well crystallization reagent kits (GRAS6, GRAS2, Hampton Research; MORPHEUS, Molecular Dimensions; Wizard 1&2 Cryo, Rigaku Reagents) and crystal growth was inspected by optical microscopy. Crystals were used directly or further optimized for X-ray diffraction. Crystals were captured with cryogenic loops and dipped into liquid nitrogen directly or cryoprotected with a 20% glycerol in crystallization formulation before flash-cooling in liquid nitrogen.
Thereafter crystals are transferred once or twice for soaking within the crystallization solution containing the MASP-2 inhibitor.
Crystals were diffracted with synchrotron X-rays of […] and X-ray diffraction datasets were collected at beamlines SSRL BL9-2, BL14-1, BL12-2 as well as ALS sector 5 using Dectris Pilatus and Eiger detectors. Structures were determined by molecular replacement using portions of the structure 1Q3X as search models and partially refined with Buster 2.10.2 or Refmac 5.8. […] When multiple ligand poses were observed, for instance arising from multiple molecules in the asymmetric unit or refined dual poses within the same molecule, only one pose was selected and analyzed.
LigPlot+ calls these ‘nonbonded contacts’ or ‘hydrophobic contacts’. Despite the name, there are atom pairings that include possible H-bonds. Thus, in some instances, the Table A2 also contains H-bond interactions.

[1] = Table A5-1 pharmacophore: distance between elements, S2/S1 region
[2] = Table A5-2 pharmacophore distance, S3/S4 region
[3] = Table A7-1, between pharmacophore elements of the bound compound
[4] = Table A7-2, between pharmacophore elements of the bound compound
[5] = Table A8-6, nearest protein atom in cell to the left

MASP-2 CCP2-SP, sequence (O00187 445-686): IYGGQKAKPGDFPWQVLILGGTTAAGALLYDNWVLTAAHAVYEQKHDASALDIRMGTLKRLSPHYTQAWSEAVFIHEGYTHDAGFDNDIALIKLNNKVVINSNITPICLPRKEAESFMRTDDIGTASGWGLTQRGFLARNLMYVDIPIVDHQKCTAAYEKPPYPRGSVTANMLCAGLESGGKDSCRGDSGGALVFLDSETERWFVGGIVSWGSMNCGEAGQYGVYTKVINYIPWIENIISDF
MASP-2 CCP2-SP, sequence (O00187 364-432 partner): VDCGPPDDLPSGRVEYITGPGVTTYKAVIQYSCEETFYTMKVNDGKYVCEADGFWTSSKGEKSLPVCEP

With `C[C@H](NC(=O)[C@@H](CCc1ccccc1)NCc1ccc(N2CCOCC2)cc1)C(=O)NCc1ccc(C(=N)N)cc1` [compound 1149] the “H-bond distance to MASP-2 ASP 627 atom OD2” value (Table A1 (H-Bonds), ASP 627 OD2) was 3.09, the “H-bond distance to MASP-2 CYS 660 atom SG” value (Table A1 (H-Bonds), CYS 660 SG) was 3.16 and the “H-bond distance to MASP-2 GLY 656 atom N” value (Table A1 (H-Bonds), GLY 656 N) was 3.24. The “H-bond distance to MASP-2 SER 654 atom O” value (Table A1 (H-Bonds), SER 654 O) was 2.7, the “H-bond distance to MASP-2 SER 657 atom O” value (Table A1 (H-Bonds), SER 657 O) was 2.75 and the “H-bond distance to MASP-2 SER 657 atom OG” value (Table A1 (H-Bonds), SER 657 OG) was 3.19. The “van der Waals contact distance, MASP-2 ASP 526 atom C” value (Table A2-1) was 3.29, the “van der Waals contact distance, MASP-2 ASP 526 atom CA” value (Table A2-1) was 3.87 and the “van der Waals contact distance, MASP-2 HIS 483 atom CD2” value (Table A2-1) was 3.81. The “van der Waals contact distance, MASP-2 GLY 528 atom N” value (Table A2-2) was 3.4, the “van der Waals contact distance, MASP-2 PHE 529 atom CE1” value (Table A2-3) was 3.68 and the “van der Waals contact distance, SER 654 C to compound atom” value (Table A2-11) was 3.68. The “Ligand-pharmacophore element distance, pharmacophore element C2” value was 0, the “Ligand-pharmacophore element distance, pharmacophore element C3” value was 0 and the “Ligand-pharmacophore element distance, pharmacophore element C4” value was 3.8. For the same compound, the “Ligand-pharmacophore element distance, pharmacophore element C5” value was 0, the “Ligand-pharmacophore element distance, pharmacophore element C6” value was 0 and the “Ligand-pharmacophore element distance, pharmacophore element C7” value was 0. The “Ligand-pharmacophore element distance, pharmacophore element CA1” value was 0.35, the “Ligand-pharmacophore element distance, pharmacophore element CA2” value was 0 and the “Ligand-pharmacophore element distance, pharmacophore element CA3” value was 0. The “Ligand-pharmacophore element distance, pharmacophore element CA4” value was 1.47, the “Ligand-pharmacophore element distance, pharmacophore element CA5” value was 0 and the “Ligand-pharmacophore element distance, pharmacophore element CA6” value was 4.96. The “d(CA1,N1)” value [1] was 3.57, the “d(CA1,O1)” value [1] was 5.15 and the “d(CA1,O2)” value [1] was 9.42. For the same compound, the “d(CA6,O1)” value [1] was 7.04, the “d(CA6,O2)” value [1] was 8.45 and the “d(H4,O1)” value [1] was 5.59. For the same compound, the “d(H4,O2)” value [1] was 8.32, the “d(O1,O2)” value [1] was 8.70 and the “d(N2,C4)” value [2] was 7.94. The “d(O2,H3)” value [2] was 5.29, the “d(O2,N2)” value [2] was 4.42 and the “a(CA1, O1, O2)” value (Table A6-1 pharmacophore angle) was 147.27. The “a(O1, CA6, O2)” value (Table A6-1 pharmacophore angle) was 131.55, the “a(O1, O2, H4)” value (Table A6-1 pharmacophore angle) was 105.44 and the “A(N1, CA1, O1) a)” value (Table A6-1 pharmacophore angle) was 168.87. The “a(O1, O2, H3)” value (Table A6-2 pharmacophore angle) was 54.88, the “a(O1, O2, N2)” value (Table A6-2 pharmacophore angle) was 62.73 and the “a(O2, N2, C4)” value (Table A6-2 pharmacophore angle) was 154.82. The “a(O2, N2, C4) 2” value (Table A6-2 pharmacophore angle) was 49.80, the “Pharmacophore torsion angle a(CA6, O1, H4, O2)” value [3] was 55.30 and the “Pharmacophore torsion angle a(H4, O1, O2, H3)” value [3] was 105.58. For the same compound, the “Pharmacophore torsion angle a(H4, O1, O2, N2)” value [3] was 125.02, the “Pharmacophore torsion angle a(N1, CA1, O2, H4)” value [3] was −109.82 and the “Pharmacophore torsion angle a(O1, H4, O2, CA1)” value [3] was −48.11. For the same compound, the “Pharmacophore torsion angle a(O1, O2, N2, CA4)” value [4] was 155.91, the “Pharmacophore protein distance to MET_658 (first MET_658 column)” value (Table A8-6, 6th residue column, nearest protein atom in cell to the left) was 2.55 and the “Pharmacophore protein distance to MET_658 (second MET_658 column)” value (Table A8-6, 9th residue column, nearest protein atom in cell to the left) was 3.25. The “Pharmacophore protein distance to GLY_528” value [5] was 3.92, the “Pharmacophore protein distance to PHE_529” value [5] was 2.93 and the “Pharmacophore protein distance to PRO_608” value [5] was 4.39. The “Pharmacophore protein distance to SER_611” value [5] was 2.96 and the “Pharmacophore protein distance to TRP_655” value (Table A8-6, pharmacophore elements C6, CA3, O3, H1, nearest protein atom in cell to the left) was 3.27.
For `C[C@H](NC(=O)[C@H]1C[C@H](Cc2ccccc2)CN1)C(=O)NCc1ccc(C(=N)N)cc1.Cl.Cl` [1306_2], the “Ligand-pharmacophore element distance, pharmacophore element C2” value was 0, the “Ligand-pharmacophore element distance, pharmacophore element C3” value was 0 and the “Ligand-pharmacophore element distance, pharmacophore element C4” value was 0. The “Ligand-pharmacophore element distance, pharmacophore element C5” value was 0, the “Ligand-pharmacophore element distance, pharmacophore element C6” value was 0 and the “Ligand-pharmacophore element distance, pharmacophore element C7” value was 0. The “Ligand-pharmacophore element distance, pharmacophore element CA1” value was 0.74, the “Ligand-pharmacophore element distance, pharmacophore element CA2” value was 1.14 and the “Ligand-pharmacophore element distance, pharmacophore element CA3” value was 0. For the same compound, the “Ligand-pharmacophore element distance, pharmacophore element CA4” value was 0, the “Ligand-pharmacophore element distance, pharmacophore element CA5” value was 0 and the “Ligand-pharmacophore element distance, pharmacophore element CA6” value was 0. For the same compound, the “d(CA1,N1)” value [1] was 3.60, the “d(CA1,O1)” value [1] was 3.99 and the “d(CA1,O2)” value [1] was 4.29. The “d(H4,O1)” value [1] was 6.07, the “d(H4,O2)” value [1] was 5.71 and the “d(O1,O2)” value [1] was 2.68. The “d(N2,CA2)” value [2] was 6.15, the “d(O2,H3)” value [2] was 4.46 and the “d(O2,N2)” value [2] was 2.71. For the same compound, the “a(CA1, O1, O2)” value (Table A6-1 pharmacophore angle) was 114.80, the “a(O1, O2, H4)” value (Table A6-1 pharmacophore angle) was 153.92 and the “A(N1, CA1, O1) a)” value (Table A6-1 pharmacophore angle) was 161.00. The “a(O1, O2, H3)” value (Table A6-2 pharmacophore angle) was 151.24, the “a(O1, O2, N2)” value (Table A6-2 pharmacophore angle) was 153.80 and the “a(O2, N2, CA2)” value (Table A6-2 pharmacophore angle) was 158.08. For the same compound, the “Pharmacophore torsion angle a(H4, O1, O2, H3)” value [3] was 40.51, the “Pharmacophore torsion angle a(H4, O1, O2, N2)” value [3] was 134.08 and the “Pharmacophore torsion angle a(N1, CA1, O2, H4)” value [3] was −77.87. The “Pharmacophore torsion angle a(O1, H4, O2, CA1)” value [3] was −12.97 and the “Pharmacophore torsion angle a(O1, O2, N2, CA2)” value [4] was 124.98.
For `C[C@H](NC(=O)[C@H]1C[C@@H](c2ccccc2)CCN1)C(=O)NCc1cc(Cl)ccc1O.Cl` [1078_8], the “Ligand-pharmacophore element distance, pharmacophore element C2” value was 0.85, the “Ligand-pharmacophore element distance, pharmacophore element C3” value was 0 and the “Ligand-pharmacophore element distance, pharmacophore element C4” value was 0. For the same compound, the “Ligand-pharmacophore element distance, pharmacophore element C5” value was 0.78, the “Ligand-pharmacophore element distance, pharmacophore element C6” value was 0 and the “Ligand-pharmacophore element distance, pharmacophore element C7” value was 0. For the same compound, the “Ligand-pharmacophore element distance, pharmacophore element CA1” value was 1.67, the “Ligand-pharmacophore element distance, pharmacophore element CA2” value was 0.92 and the “Ligand-pharmacophore element distance, pharmacophore element CA3” value was 0. The “Ligand-pharmacophore element distance, pharmacophore element CA4” value was 0, the “Ligand-pharmacophore element distance, pharmacophore element CA5” value was 0 and the “Ligand-pharmacophore element distance, pharmacophore element CA6” value was 0. The “d(CA1,C5)” value [1] was 3.10, the “d(CA1,O1)” value [1] was 4.33 and the “d(CA1,O2)” value [1] was 4.59. The “d(CA1,O4)” value [1] was 2.75, the “d(H4,O1)” value [1] was 2.28 and the “d(H4,O2)” value [1] was 2.53. The “d(O1,O2)” value [1] was 2.73, the “d(O4,H2)” value [1] was 0.98 and the “d(N2,C2)” value [2] was 1.44. For the same compound, the “d(N2,CA2)” value [2] was 5.66, the “d(O2,H3)” value [2] was 2.69 and the “d(O2,N2)” value [2] was 2.85. For the same compound, the “a(C5, CA1, O1)” value (Table A6-1 pharmacophore angle) was 159.05, the “a(CA1, O1, O2)” value (Table A6-1 pharmacophore angle) was 112.99 and the “a(CA1, O4, H2)” value (Table A6-1 pharmacophore angle) was 125.48. For the same compound, the “a(O1, CA1, O4)” value (Table A6-1 pharmacophore angle) was 73.28, the “a(O1, O2, H4)” value (Table A6-1 pharmacophore angle) was 111.09 and the “a(O1, O2, H3)” value (Table A6-2 pharmacophore angle) was 140.66. The “a(O1, O2, N2)” value (Table A6-2 pharmacophore angle) was 145.13, the “a(O2, N2, C2)” value (Table A6-2 pharmacophore angle) was 125.44 and the “a(O2, N2, CA2)” value (Table A6-2 pharmacophore angle) was 153.81. The “Pharmacophore torsion angle a(C5, CA1, O1, H4)” value [3] was 5.11, the “Pharmacophore torsion angle a(H4, O1, O2, H3)” value [3] was −134.33 and the “Pharmacophore torsion angle a(H4, O1, O2, N2)” value [3] was −122.87. For the same compound, the “Pharmacophore torsion angle a(O1, H4, O2, CA1)” value [3] was −58.50, the “Pharmacophore torsion angle a(O1, O2, N2, C2)” value [3] was 135.84 and the “Pharmacophore torsion angle a(O1, O2, N2, CA2)” value [4] was 143.43.
